Measurements published in US11279691B2, “Substituted pyridine and pyrazine compounds as PDE4 inhibitors” (Dart Neuroscience LLC, priority 2013, dated 2022).

Molecular target: T1, PDE4D3 (Homo sapiens, UniProt Q08499)
T1 construct: GST
Format: biochemical
Conditions: GST-tagged PDE4D3, 200 nM FAM-cAMP, 11-point dose-response; read-out: PD4d3 pEC50 (converted)

T1 sequence (Q08499 1-673 isoform Q08499-2): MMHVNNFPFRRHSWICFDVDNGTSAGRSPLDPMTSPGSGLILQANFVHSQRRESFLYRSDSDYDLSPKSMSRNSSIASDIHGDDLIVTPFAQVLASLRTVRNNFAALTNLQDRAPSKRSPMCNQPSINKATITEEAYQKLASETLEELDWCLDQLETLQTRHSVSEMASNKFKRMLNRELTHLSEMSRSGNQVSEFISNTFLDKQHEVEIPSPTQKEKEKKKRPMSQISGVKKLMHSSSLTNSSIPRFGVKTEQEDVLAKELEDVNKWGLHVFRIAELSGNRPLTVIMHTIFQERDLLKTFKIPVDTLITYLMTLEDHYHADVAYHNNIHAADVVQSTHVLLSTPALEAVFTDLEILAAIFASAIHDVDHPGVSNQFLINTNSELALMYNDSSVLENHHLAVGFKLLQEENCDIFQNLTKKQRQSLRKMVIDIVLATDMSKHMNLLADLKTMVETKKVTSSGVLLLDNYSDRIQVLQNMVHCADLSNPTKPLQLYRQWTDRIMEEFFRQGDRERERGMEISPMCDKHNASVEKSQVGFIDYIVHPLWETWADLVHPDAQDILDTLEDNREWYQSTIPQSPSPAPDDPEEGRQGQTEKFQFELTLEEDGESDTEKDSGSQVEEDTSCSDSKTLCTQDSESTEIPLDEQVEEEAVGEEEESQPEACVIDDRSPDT

Row | Structure (SMILES) | EC50
1 | COc1ncc(Cc2cnc(N3CC(O)C3)nc2)cc1-c1cccc(Cl)c1 [Example 390, 1-(5-{[5-(3-Chlorophenyl)-6-methoxypyridin-3-yl]methyl}pyrimidin-2-yl)azetidin-3-ol] | 100 to 1000 nM
2 | COc1ncc(Cc2cnc(N)c(F)c2)cc1-c1ccnc(OC(F)F)c1 [Example 301, 5-((2′-(Difluoromethoxy)-2-methoxy-[3,4′-bipyridin]-5-yl)methyl)-3-fluoropyridin-2-amine] | < 100 nM
3 | CCOc1ncc(Cn2nnc(C)n2)cc1-c1ccc(F)cc1 [Example 392, 2-Ethoxy-3-(4-fluorophenyl)-5-[(5-methyl-2H-1,2,3,4-tetrazol-2-yl)methyl]pyridine] | < 100 nM
4 | OCc1ncn(Cc2cnc(OCC(F)(F)F)c(-c3cccc(Cl)c3)c2)n1 [Example 300, (1-((5-(3-Chlorophenyl)-6-(2,2,2-trifluoroethoxy)pyridin-3-yl)methyl)-1H-1,2,4-triazol-3-yl)methanol] | 100 to 1000 nM
5 | COc1ncc(Cn2nnc(CO)n2)cc1-c1ccc(F)c(F)c1 [Example 383, (2-{[5-(3,4-Difluorophenyl)-6-methoxypyridin-3-yl]methyl}-2H-1,2,3,4-tetrazol-5-yl)methanol] | 100 to 1000 nM
6 | CCOc1ncc(Cn2cnc(C(N)=O)c2)nc1-c1ccc(F)c(F)c1 [Example 314, 1-{[6-(3,4-Difluorophenyl)-5-ethoxypyrazin-2-yl]methyl}-1H-imidazole-4-carboxamide] | 100 to 1000 nM
7 | CCOc1ncc(Cn2cc(CO)nc2C)nc1-c1cccc(Cl)c1 [Example 324, (1-{[6-(3-Chlorophenyl)-5-ethoxypyrazin-2-yl]methyl}-2-methyl-1H-imidazol-4-yl)methanol] | 100 to 1000 nM
8 | COc1ncc(Cc2ccc(CC(N)=O)cc2)cc1-c1ccc(F)c(F)c1 [Example 363, 2-(4-{[5-(3,4-Difluorophenyl)-6-methoxypyridin-3-yl]methyl}phenyl)acetamide] | < 100 nM
9 | COc1ncc(Cc2ccc(C#N)cn2)cc1-c1cccc(Cl)c1 [Example 378, 6-{[5-(3-Chlorophenyl)-6-methoxypyridin-3-yl]methyl}pyridine-3-carbonitrile] | 100 to 1000 nM
10 | COc1ncc(Cc2cnc(CC(N)=O)nc2)cc1-c1ccc(F)c(F)c1 [Example 368, 2-(5-{[5-(3,4-Difluorophenyl)-6-methoxypyridin-3-yl]methyl}pyrimidin-2-yl)acetamide] | < 100 nM
11 | COc1ncc(Cn2cnc(CO)n2)cc1-c1cccc(Cl)c1 [Example 336, (1-{[5-(3-Chlorophenyl)-6-methoxypyridin-3-yl]methyl}-1H-1,2,4-triazol-3-yl)methanol] | < 100 nM
12 | COc1ncc(Cc2cnc(OCC(C)(C)O)nc2)cc1-c1cccc(Cl)c1 [Example 318, 1-[(5-{[5-(3-Chlorophenyl)-6-methoxypyridin-3-yl]methyl}pyrimidin-2-yl)oxy]-2-methylpropan-2-ol] | 1000 to 10000 nM
13 | COc1ncc(Cn2nnnc2CO)cc1-c1ccc(F)c(F)c1 [Example 384, (1-{[5-(3,4-Difluorophenyl)-6-methoxypyridin-3-yl]methyl}-1H-1,2,3,4-tetrazol-5-yl)methanol] | 1000 to 10000 nM
14 | COc1ncc(Cn2nnnc2CO)cc1-c1cccc(Cl)c1 [Example 387, (1-{[5-(3-Chlorophenyl)-6-methoxypyridin-3-yl]methyl}-1H-1,2,3,4-tetrazol-5-yl)methanol] | 1000 to 10000 nM
15 | CCOc1cc(-c2cc(Cn3nnnc3C)cnc2OCC)ccn1 [Example 400, 2-Ethoxy-3-(2-ethoxypyridin-4-yl)-5-[(5-methyl-1H-1,2,3,4-tetrazol-1-yl)methyl]pyridine] | 100 to 1000 nM
16 | CCOc1ncc(Cc2cnc(N)nc2)cc1-c1ccc(Cl)cc1 [Example 351, 5-{[5-(4-Chlorophenyl)-6-ethoxypyridin-3-yl]methyl}pyrimidin-2-amine] | 100 to 1000 nM
17 | CCOC(=O)Cc1ccc(Cc2cnc(OC)c(-c3ccc(F)c(F)c3)c2)cc1 [Intermediate 49, Ethyl 2-(4-{[5-(3,4-difluorophenyl)-6-methoxypyridin-3-yl]methyl}phenyl)acetate] | < 100 nM
